Experiment [1] concerns the target S. aureus CrtM (dehydrosqualene synthase) (Staphylococcus aureus, UniProt A9JQL9). The experiment in a line: CrtM enzyme inhibition assay. The conditions noted are these: for as active as 1 in CrtM inhibition: fold more active.
Experiment [2] deals with staphyloxanthin (STX) biosynthesis in S. aureus. Description: Staphyloxanthin biosynthesis inhibition assay. In kind it is cell-based, Staphylococcus aureus. How it is done: The question next arises: how potent are these compounds in inhibiting STX biosynthesis in S. aureus? We thus treated S. aureus bacteria with serially diluted compounds at 37° C. for 3 days, after which the STX pigment was extracted with methanol. Optical densities were measured at 450 nm and IC50 values for inhibition of pigment formation for each compound were calculated using a standard dose-response curve. The rank ordered IC50 values of the 38 compounds investigated are shown in Table 7 and dose-response curves of representative compounds are shown in FIG. 2.
The S. aureus strain used was the WT clinical isolate (Pig1) (4). S. aureus was cultured in THB (1 mL) in the presence of inhibitor compounds for 72 h, in duplicate. Cells were then centrifuged and washed twice with PBS. STX was extracted with MeOH and the O.D. was determined at 450 nm using a Perkin Elmer MBA 2000 (Norwalk, Conn.) spectrophotometer.

[3] abbreviates: read-out: CrtM IC50 values, Table 4.
Setting [4] is: read-out: CrtM enzyme experimental activity IC50, Table 5.
Setting [5] is: Table 7, S. aureus, 37° C., 3 days, read-out: Staphyloxanthin IC50.
The mark [6] stands for this setting: Staphylococcus aureus, 72 h, read-out: Staphyloxanthin IC50.

Structures can show the parent of a compound that is named as a salt. Where two headings read alike, the source gives them in different places.

Chain of S. aureus CrtM (dehydrosqualene synthase) (A9JQL9 whole entry): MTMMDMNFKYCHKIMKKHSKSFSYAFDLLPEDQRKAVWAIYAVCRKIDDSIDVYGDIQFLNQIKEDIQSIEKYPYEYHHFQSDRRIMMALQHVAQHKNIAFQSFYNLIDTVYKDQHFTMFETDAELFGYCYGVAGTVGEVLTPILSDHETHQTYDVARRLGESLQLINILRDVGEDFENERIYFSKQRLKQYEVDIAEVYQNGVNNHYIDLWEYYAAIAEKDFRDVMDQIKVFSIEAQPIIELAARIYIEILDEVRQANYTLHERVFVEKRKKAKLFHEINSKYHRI

Take “1-Phosphono-4-[3-(2-fluorophenoxy)phenyl]butylsulfonic acid tripotassium salt [Compound 21]”: the “CrtM enzyme experimental activity pIC50” value in experiment [1] (Table 5) is 5.16. Moreover, the IC50 (commonly the midpoint of a concentration-inhibition curve) came out at 6.9 µM in experiment [1] (setting [3]), 6.9 µM in experiment [1] (setting [4]) and 0.51 µM in experiment [2] (setting [5]).
With “1-Phosphono-4-[3-(2-trifluoromethylphenoxy)phenyl]butylsulfonic acid tripotassium salt [Compound 23]”, the “CrtM enzyme experimental activity pIC50” value in experiment [1] (Table 5) is 4.27. The IC50 in experiment [1] (setting [3]) was determined as 53.7 µM; in experiment [1] (setting [4]), 53.7 µM; in experiment [2] (setting [5]) it was 0.46 µM.
“1-Phosphono-4-[3-(3,4-dichlorophenoxy)phenyl]butylsulfonic acid tripotassium salt [Compound 31]”: in experiment [1] (Table 5), the “CrtM enzyme experimental activity pIC50” value is recorded as 5.65. For the same molecule, the half-maximal inhibitory concentration (IC50) in experiment [1] (setting [3]) came out at 2.2 µM; in experiment [1] (setting [4]), 2.2 µM; in experiment [2] (setting [5]) it was 0.011 µM.
Take “1-Phosphono-4-[3-(3,4-difluorophenoxy)phenyl]butylsulfonic acid tripotassium salt [Compound 30]”: in experiment [1] (Table 5), the “CrtM enzyme experimental activity pIC50” value stood at 5.76. Moreover, the concentration for half-maximal inhibition (IC50) in experiment [1] (setting [3]) was found to be 1.7 µM; in experiment [1] (setting [4]), 1.7 µM; in experiment [2] (setting [5]), 0.11 µM.
On to “1-Phosphono-4-[3-(3,5-dichlorophenoxy)phenyl]butylsulfonic acid tripotassium salt [Compound 34]”, for which the “CrtM enzyme experimental activity pIC50” value in experiment [1] (Table 5) came out at 5.2. Besides, the IC50 came out at 6.3 µM in experiment [1] (setting [3]), 6.3 µM in experiment [1] (setting [4]) and 0.051 µM in experiment [2] (setting [5]).
Take “1-Phosphono-4-[3-(3,5-difluorophenoxy)phenyl]butylsulfonic acid tripotassium salt [Compound 33]”: in experiment [1] (Table 5), the “CrtM enzyme experimental activity pIC50” value turned out to be 5.34. For the same molecule, the IC50 in experiment [1] (setting [3]) was found to be 4.6 µM; in experiment [1] (setting [4]), 4.6 µM; in experiment [2] (setting [5]), 0.015 µM.
Turning to “1-Phosphono-4-[3-(3-fluorophenoxy)phenyl]butylsulfonic acid tripotassium salt [Compound 20]”, in experiment [1] (Table 5), the “CrtM enzyme experimental activity pIC50” value was 5.66. Further, the half-inhibitory concentration (IC50) in experiment [1] (setting [3]) is 2.2 µM; in experiment [1] (setting [4]) it was 2.2 µM; in experiment [2] (setting [5]) it was 0.22 µM.
On to “1-Phosphono-4-[3-(3-trifluoromethylphenoxy)phenyl]butylsulfonic acid tripotassium salt [Compound 22]”, for which the “CrtM enzyme experimental activity pIC50” value in experiment [1] (Table 5) was 5.01. Also, the half-inhibitory concentration (IC50) in experiment [1] (setting [3]) was found to be 9.8 µM; in experiment [1] (setting [4]), 9.8 µM; in experiment [2] (setting [5]), 0.074 µM.
On to “1-Phosphono-4-[3-(4-chlorophenoxy)phenyl]butylsulfonic acid tripotassium salt [Compound 24]”, for which the “CrtM enzyme experimental activity pIC50” value in experiment [1] (Table 5) is recorded as 5.6. Also, the IC50 came to 2.5 µM in experiment [1] (setting [3]), 2.5 µM in experiment [1] (setting [4]) and 0.039 µM in experiment [2] (setting [5]).
Regarding “1-Phosphono-4-[3-(4-fluorophenoxy)-6-fluoro-phenyl]butylsulfonic acid tripotassium salt [Compound 35]”, the “CrtM enzyme experimental activity pIC50” value in experiment [1] (Table 5) is 5.68. For the same molecule, the IC50 came to 2.1 µM in experiment [1] (setting [3]), 2.1 µM in experiment [1] (setting [4]) and 0.059 µM in experiment [2] (setting [5]).
Regarding “1-Phosphono-4-[3-(4-fluorophenoxy)-6-methoxy-phenyl]butylsulfonic acid tripotassium salt [Compound 36]”, the concentration for half-maximal inhibition (IC50) in experiment [2] (setting [5]) is 13.8 µM.
Consider “1-Phosphono-4-[3-(4-hydroxyphenoxy)phenyl]butylsulfonic acid tripotassium salt [Compound 27]”, for which the IC50 in experiment [2] (setting [5]) stood at 6.8 µM.
In the case of “1-Phosphono-4-[3-(4-phenoxyphenoxy)phenyl]butylsulfonic acid tripotassium salt [Compound 28]”, in experiment [2] (setting [5]), the concentration for half-maximal inhibition (IC50) turned out to be 0.1 µM.
Take “1-Phosphono-4-[3-(benzofuran-5-yloxy)phenyl]butylsulfonic acid tripotassium salt [Compound 32]”: the “CrtM enzyme experimental activity pIC50” value in experiment [1] (Table 5) stood at 5.67. Also, the IC50 in experiment [1] (setting [3]) worked out at 2.1 µM; in experiment [1] (setting [4]), 2.1 µM; in experiment [2] (setting [5]), 0.015 µM.
Regarding “1-Phosphono-4-[3-[4-(furan-2-yl)phenoxy]phenyl]butylsulfonic acid tripotassium salt [Compound 29]”, the “CrtM enzyme experimental activity pIC50” value in experiment [1] (Table 5) is reported as 4.58. Moreover, the IC50 in experiment [1] (setting [3]) turned out to be 26.3 µM; in experiment [1] (setting [4]), 26.3 µM; in experiment [2] (setting [5]), 1.1 µM.
For `O=P(O)(O)C(CCCc1ccc(-c2ccccc2)cc1)P(=O)(O)O` [Compound 2, 4-(4-Biphenyl)butyldiphosphonic acid tetrapotassium salt], the figures for the 50% inhibitory concentration (IC50) in experiment [1], in experiment [1] (read-out: IC50 against CrtM) and in experiment [2] (setting [6]) were 0.48 µM, 0.5 µM and 2.2 µM, respectively. The Ki (usually a measure of affinity in units of concentration, obtained from inhibition or displacement) in experiment [1] is ~0.001 µM.
As for `CP(=O)([O-])C(CCCc1ccc(-c2ccccc2)cc1)P(=O)([O-])[O-].[K+].[K+].[K+]` (stereo not drawn) [Compound 4, dipotassium salt], in experiment [2] (setting [6]), the half-inhibitory concentration (IC50) came to 1.4 µM.
For `O=P([O-])([O-])C(CCCc1cccc(Oc2ccc(F)cc2)c1)S(=O)(=O)[O-].[K+].[K+].[K+]` (stereo not drawn) [Compound 5, 1-Phosphono-4-[3-(4-fluorophenoxy)phenyl]butylsulfonic acid tripotassium salt], the IC50 in experiment [1] is 2.34 µM; in experiment [1] (read-out: IC50 against CrtM), 2.3 µM; in experiment [2] (setting [6]) it was 0.052 µM. Besides, in experiment [1], the inhibition constant (Ki) is ~0.005 µM. Also, the “as active as 1 in CrtM inhibition” value in experiment [1] (versus 1) is given as ~4 ×.
With `CCCc1ccc(Oc2cccc(CCCC(P(=O)([O-])[O-])S(=O)(=O)[O-])c2)cc1.[K+].[K+].[K+]` (stereo not drawn) [Compound 6, 1-Phosphono-4-[3-(4-propylphenoxy)phenyl]butylsulfonic acid tripotassium salt], the Ki in experiment [1] is ~0.005 µM. In experiment [1] (versus 1), the “as active as 1 in CrtM inhibition” value is on record as ~4 ×. Moreover, the IC50 in experiment [1] (read-out: IC50 (CrtM), Table 1) came out at 2.2 µM; in experiment [2] (setting [6]) it was 0.093 µM; in experiment [2] (Staphylococcus aureus, read-out: IC50 (STX)) it was 0.1 µM; in experiment [2] (Staphylococcus aureus, read-out: IC50 for STX biosynthesis), 0.093 µM.
Regarding `O=P(O)(O)C(CCCc1cccc(Oc2ccc(C(F)(F)F)cc2)c1)S(=O)(=O)O` (stereo not drawn) [Compound 7, 1-Phosphono-4-[3-(4-trifluoromethylphenoxy)phenyl]butylsulfonic acid tripotassium salt], the half-maximal inhibitory concentration (IC50) in experiment [1] (setting [3]) came to 7.2 µM; in experiment [2] (setting [6]), 0.04 µM.
Turning to `O=P([O-])([O-])C(CCCc1cccc(Oc2ccccc2Cc2ccccc2)c1)S(=O)(=O)[O-].[K+].[K+].[K+]` (stereo not drawn) [Compound 8, 1-Phosphono-4-[3-(2-benzylphenoxy)phenyl]butylsulfonic acid tripotassium salt], the “CrtM enzyme experimental activity pIC50” value in experiment [1] (Table 5) is 4.43. Further, in experiment [1] (fold, versus 1), the “less active than 1 in CrtM inhibition” value is given as ~5 ×. Besides, the half-inhibitory concentration (IC50) in experiment [2] (setting [6]) turned out to be 0.019 µM.
In the case of `O=P([O-])([O-])C(CCCc1ccc(-c2ccccc2)cc1)S(=O)(=O)[O-].[K+].[K+].[K+]` (stereo not drawn) [Compound 9, 1-Phosphono-4-(4-biphenyl)butylsulfonic acid tripotassium salt], in experiment [2] (setting [6]), the IC50 was determined as 0.35 µM.
As to `O=P(O)(O)C(CCCc1ccc(-c2ccc(F)cc2F)cc1)S(=O)(=O)O` (stereo not drawn) [Compound 10, 1-Phosphono-4-[4-(2,4-difluorophenyl)phenyl]butylsulfonic acid tripotassium salt], the results for the IC50 in experiment [1] (setting [4]) and in experiment [2] (setting [6]) were 9.1 µM and 0.18 µM, respectively.
The corresponding values for `Cc1ccc(-c2ccc(CCCC(P(=O)(O)O)S(=O)(=O)O)cc2)cc1` (stereo not drawn) [Compound 11, 1-Phosphono-4-[4-(4-methylphenyl)phenyl]butylsulfonic acid tripotassium salt] are 24.5 µM and 0.18 µM.
In the case of `CCCCc1ccc(-c2ccc(CCCC(P(=O)([O-])[O-])S(=O)(=O)[O-])cc2)cc1.[K+].[K+].[K+]` (stereo not drawn) [Compound 12, 1-Phosphono-4-[4-(4-butylphenyl)phenyl]butylsulfonic acid tripotassium salt], in experiment [2] (setting [6]), the IC50 was determined as 0.16 µM.
As for `CCCOc1cccc(-c2ccc(CCCC(P(=O)(O)O)S(=O)(=O)O)cc2)c1` (stereo not drawn) [Compound 13, 1-Phosphono-4-[4-(3-propoxyphenyl)phenyl]butylsulfonic acid tripotassium salt], the IC50 came out at 123 µM in experiment [1] (setting [4]) and 0.49 µM in experiment [2] (setting [6]).
With `O=P(O)(O)C(CCCc1cccc(Nc2ccccc2)c1)S(=O)(=O)O` (stereo not drawn) [Compound 16, 1-Phosphono-4-(3-phenylaminophenyl)butylsulfonic acid tripotassium salt], the IC50 in experiment [1] (read-out: IC50 against CrtM) was 43.7 µM; in experiment [2] (setting [6]), 0.5 µM.
Take `O=P([O-])([O-])C(CCCc1ccc(Oc2ccccc2)cc1)S(=O)(=O)[O-].[K+].[K+].[K+]` (stereo not drawn) [Compound 18, 1-Phosphono-4-(4-phenoxyphenyl)butylsulfonic acid tripotassium salt]: in experiment [2] (setting [6]), the half-maximal inhibitory concentration (IC50) stood at 0.19 µM.
For `CCn1c2ccccc2c2cc(CCCC(P(=O)(O)O)S(=O)(=O)O)ccc21` (stereo not drawn) [Compound 19, 1-Phosphono-4-(9-ethylcarbazole-3-yl)butylsulfonic acid tripotassium salt], the 50% inhibitory concentration (IC50) in experiment [2] (setting [6]) was found to be 263 µM.
For the molecule `O=P(O)(O)[C@@H](CCCc1cccc(Oc2ccccc2)c1)S(=O)(=O)O` [Compound (R)-1, (1R)-1-Phosphono-4-(3-phenoxyphenyl)butylsulfonic acid tripotassium salt], the concentration for half-maximal inhibition (IC50) in experiment [2] (setting [6]) worked out at 0.31 µM.
In turn, `O=C(CP(=O)(O)O)NCCCc1ccc(-c2ccccc2)cc1` [compound 846] showed a concentration for half-maximal inhibition (IC50) in experiment [1] of 165 µM.
Regarding `O=C(O)CC(=O)NCCCc1cccc(Oc2ccccc2)c1` [compound 888], the concentration for half-maximal inhibition (IC50) in experiment [1] is > 1500 µM.

These data come from US20120022024A1, “ANTI-BACTERIAL COMPOSITIONS AND METHODS INCLUDING TARGETING VIRULENCE FACTORS OF STAPHYLOCOCCUS AUREUS” (priority 2009, published 2012).
